Results from ChEMBL document CHEMBL4311976, “Design, synthesis and biological evaluation of novel 7H-pyrrolo[2,3-d]pyrimidine derivatives as potential FAK inhibitors and anticancer agents” (Eur J Med Chem, 2019).

What was measured:
Assay in all cases: cells
A549 = details: Homo sapiens, A549, 72 h
Description: Antiproliferative activity against human A549 cells assessed as reduction in cell viability after 72 hrs by MTT assay

HK-2 = details: Homo sapiens, HK-2, 72 h
Description: Cytotoxicity against human HK2 cells assessed as reduction in cell viability after 72 hrs by MTT assay

MDA-MB-231 = details: Homo sapiens, MDA-MB-231, 72 h
Description: Antiproliferative activity against human MDA-MB-231 cells assessed as reduction in cell viability after 72 hrs by MTT assay

Row | SMILES | IC50 (A549) | IC50 (HK-2) | IC50 (MDA-MB-231)
1 | CP(C)(=O)c1ccccc1Nc1nc(Nc2ccc(C(=O)N[C@H]3CCCNC3)cc2)nc2[nH]ccc12 | 2.48 µM | > 25 µM | 12.4 µM
2 | COc1cc(C(=O)NC2CCNCC2)c(F)cc1Nc1nc(Nc2ccccc2P(C)(C)=O)c2cc[nH]c2n1 | 2.24 µM | > 25 µM | 11.3 µM
3 | CP(C)(=O)c1ccccc1Nc1nc(Nc2ccc(C(=O)N3CCOCC3)cc2)nc2[nH]ccc12 | 9.8 µM | 8.89 µM | 14.3 µM
4 | CP(C)(=O)c1ccccc1Nc1nc(Nc2ccc(C(=O)NC3CCNCC3)cc2)nc2[nH]ccc12 | 2.93 µM | > 25 µM | 17.8 µM
5 | CNC(=O)c1ccccc1Nc1nc(Nc2ccc(N3CCOCC3)cc2OC)ncc1Cl | 1.02 µM | 8.2 µM | 4.24 µM
6 | CP(C)(=O)c1ccccc1Nc1nc(Nc2ccc(C(=O)NC3CCNCC3)c(F)c2)nc2[nH]ccc12 | 1.61 µM | 21.9 µM | 4.17 µM
7 | CP(C)(=O)c1ccccc1Nc1nc(Nc2ccc(C(=O)NC3CCOCC3)cc2)nc2[nH]ccc12 | 3.72 µM | 9.75 µM | 6.53 µM

Next, values leading:

Row | IC50 (A549) | IC50 (HK-2) | IC50 (MDA-MB-231) | SMILES
8 | 0.53 µM | 8.33 µM | 4.35 µM | CP(C)(=O)c1ccccc1Nc1nc(Nc2ccc(N3CCNCC3)cc2)nc2[nH]ccc12
9 | 7.53 µM | 4.4 µM | 3.43 µM | CP(C)(=O)c1ccccc1Nc1nc(Nc2cnn(CC(F)F)c2)nc2[nH]ccc12
10 | 14.5 µM | > 25 µM | 14.1 µM | CP(C)(=O)c1ccccc1Nc1nc(Nc2cnn(C3CCNCC3)c2)nc2[nH]ccc12
11 | 7.01 µM | 14.4 µM | 5.53 µM | CP(C)(=O)c1ccccc1Nc1nc(Nc2cnn(C3CCOCC3)c2)nc2[nH]ccc12
12 | 17.4 µM | > 25 µM | 8.18 µM | COCCn1cc(Nc2nc(Nc3ccccc3P(C)(C)=O)c3cc[nH]c3n2)cn1
13 | 1.02 µM | 4.77 µM | 1.31 µM | CCNS(=O)(=O)c1ccc(Nc2nc(Nc3ccccc3P(C)(C)=O)c3cc[nH]c3n2)cc1
14 | 9.88 µM | > 25 µM | 8.8 µM | CP(C)(=O)c1ccccc1Nc1nc(Nc2ccc(C(=O)N3CCNCC3)cc2)nc2[nH]ccc12
15 | 3.45 µM | 9.16 µM | 4.17 µM | CNC(=O)c1ccc(Nc2nc(Nc3ccccc3P(C)(C)=O)c3cc[nH]c3n2)cc1
